Results as given in US8710088B2, “Pharmaceutical and diagnostic compositions for use in the treatment and diagnosis of neurodegenerative diseases or amyloid diseases” (Max-Delbruck-Centrum fur Molekulare Medizin, priority 2004, dated 2014).

Assays:
[1] = target: T1, mutant huntingtin (GST fusion protein GST-HDQ51) (Homo sapiens, UniProt P42858, INS38QQQQQQQQQQQQQQQQQQQQQQQQQQQQQQ); assay: in vitro amyloid fibril formation of huntingtin, electron microscopy; type: biochemical
T1 construct: GST (N)
T1 sequence (P42858 with tags, fused parts or gaps with the stated changes limits assumed): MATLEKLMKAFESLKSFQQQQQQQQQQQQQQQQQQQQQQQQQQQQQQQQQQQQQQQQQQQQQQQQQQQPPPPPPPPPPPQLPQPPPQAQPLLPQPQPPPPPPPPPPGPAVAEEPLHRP
Method: (§1) As in the tests described by Heiser et al. (2002), the protein was used for aggregation tests to which either only solvent or solvent and the chemical agent in question was added. Aliquots of these batches were examined by means of the membrane filter test and electron microscopy.
(§2) As in the tests described by Heiser et al. (2002), the protein was used for aggregation tests to which either only solvent or solvent and 7-amino-8-(2,4-dihydroxy-6-methyl-phenyl)-1,9-dimethyl-phenoxazine-3-one was added. Aliquots of these batches were examined by means of the membrane filter test (FIG. 1B) and electron microscopy (FIGS. 1E and 1F).

wild type Aβ1-42 = target: T2, wild type Aβ1-42 (Homo sapiens, UniProt P05067); assay: aggregation assay with wild type Aβ1-42, membrane filter method; type: biochemical; conditions: peptide 15 μM, pH 7.4, 42 h, 37° C.
T2 construct: non-mutated (wild type) Aβ1-42
T2 sequence (P05067 672-713 limits assumed): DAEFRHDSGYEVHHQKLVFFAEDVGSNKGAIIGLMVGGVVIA
Method: (§3) Analogously, the compounds were also examined in aggregation assays with the amyloid β-peptide Aβ1-42(E22Q), which is a particularly rapidly aggregating variant of amyloid β, as well as with non-mutated (wild type) Aβ1-42. For this purpose, the peptide was incubated at a concentration of 15 μM in a phosphate buffer with a physiological pH value of 7.4 for 42 h at 37° C. and subsequently, aliquots were examined by means of the membrane filter method (Figure) or electron microscopy (Figures) as well. […] Cell viability measurements were carried out in neuronally differentiated PC12 cells to which beta-amyloid and the substances to be tested were added extracellularly in order to examine whether the compounds are able to reduce toxicity caused by amyloid-beta. After 48 h the viability of the cells (approximately corresponds to the number of vital cells) was measured.

[2] = system: neuronally differentiated PC12 cells; assay: toxicity of extracellular Aβ1-42 in neuronally differentiated PC12 cells, MTT test; type: cell-based; conditions: 48 h
Method: as §3

[3] = target: T1, mutant huntingtin (GST fusion protein GST-HDQ51); assay: in vitro aggregation of mutant huntingtin, membrane filter test; type: biochemical; conditions: membrane filter method
Method: as §1, §2

[4] = target: T3, amyloid β-peptide Aβ1-42[E22Q] (Homo sapiens, UniProt P05067, E693Q); assay: aggregation assay with Aβ1-42[E22Q], membrane filter method or electron microscopy; type: biochemical; conditions: 15 μM peptide, pH 7.4, 42 h, 37° C.
T3 construct: the amyloid β-peptide Aβ1-42[E22Q]
T3 sequence (P05067 672-713 E693Q): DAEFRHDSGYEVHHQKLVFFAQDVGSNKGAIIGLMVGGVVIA
Method: as §3
Analogously, the compound was also examined in aggregation assays with the amyloid β-peptide Aβ1-42[E22Q] which is a particularly rapidly aggregating variant of amyloid β. For this purpose, the peptide was incubated at a concentration of 15 μM in a phosphate buffer with a physiological pH value of 7.4 for 42 h at 37° C. and subsequently, aliquots were examined by means of the membrane filter method (FIG. 1A) or electron microscopy (FIGS. 1C and 1D) as well.

huntingtin = target: T4, huntingtin (Homo sapiens, UniProt P42858, INS38QQQQQQQQQQQQQQQQQQQQQQQQQQQQQQ); assay: cell culture model of Huntington's chorea: COS1 cells transfected with pTL1-CAG51, membrane filter test; type: cell-based; conditions: 40-44 h, membrane filter method
T4 construct: expressed in transfected cells; host or cells: COS1 cells, transient transfection
T4 sequence (P42858 with tags, fused parts or gaps with the stated changes limits assumed): as the sequence (P42858 with tags, fused parts or gaps with the stated changes limits assumed) above
Method: (§4) The compounds were then tested in several cell culture models of polyglutamine diseases, inter alia Huntington's chorea. For this purpose, COS1 cells were transiently transfected with the plasmid pTL1-CAG51 already described above (Sittler, A., Walter, S., Wedemeyer, N., Hasenbank, R., Scherzinger, E., Eickhoff, H., Bates, G. P., Lehrach, H. and Wanker, E. E. (1998) Mol Cell 2, 427-36) and cultivated for 44 h in the presence of solvents or the chemical agents. Subsequently, the amount of aggregate was determined with the help of the membrane filter test as described by Heiser et al. (2002). […] The latter could be deduced from the total amount of protein in the cell lysate (FIG. 2B) which was determined with the help of cell extracts.
7-Amino-8-(2,4-dihydroxy-6-methyl-phenyl)-1,9-dimethyl-phenoxazine-3-one was then tested in a cell culture model of Huntington's chorea. For this purpose, COS1 cells were transiently transfected with the plasmid pTL1-CAG51 already described above (Sittler, A., Walter, S., Wedemeyer, N., Hasenbank, R., Scherzinger, E., Eickhoff, H., Bates, G. P., Lehrach, H. and Wanker, E. E. (1998) Mol Cell 2, 427-36) and cultivated for 40-44 h in the presence of solvents or 7-amino-8-(2,4-dihydroxy-6-methyl-phenyl)-1,9-dimethyl-phenoxazine-3-one. Subsequently, the amount of aggregate was determined with the help of the membrane filter test as described by Heiser et al. (2002). […] The latter could be deduced from the total amount of protein (FIG. 2B) which was determined with the help of cell extracts.

COS1 cells = assay: total amount of protein in the cell lysate (toxicity) in the COS1 model; type: cell-based
Method: as §4
7-Amino-8-(2,4-dihydroxy-6-methyl-phenyl)-1,9-dimethyl-phenoxazine-3-one was then tested in a cell culture model of Huntington's chorea. […] Subsequently, the amount of aggregate was determined with the help of the membrane filter test as described by Heiser et al. (2002). […] The latter could be deduced from the total amount of protein (FIG. 2B) which was determined with the help of cell extracts.

caspases-3/-7 = assay: caspase activity in the COS1 model of Huntington's chorea, fluorogenic substrate; type: cell-based; conditions: fluorometric
Method: (§5) In addition, it was examined in this cell culture model of Huntington's chorea whether the substances tested substances can cause cell damage by initiating apoptotic processes. For this purpose, the activity of two caspases (caspases-3/-7) was determined fluorometrically after addition of a fluorogenic substrate.
as §5, with “7-amino-8-(2,4-dihydroxy-6-methyl-phenyl)-1,9-dimethyl-phenoxazine-3-one” for “the substances tested substances”, “(caspases 3 and 7)” for “(caspases-3/-7)”

alpha-synuclein = alpha-synuclein amyloid fibril formation, electron microscopy; type: biochemical; conditions: wild type protein or mutant (A53T)
Source text: For this purpose, the wild type protein or a mutant (A53T) was used.

neuroblastoma cells = neuroblastoma cells damaged with amyloid β-peptide; cited from earlier work
[5] = system: ataxin-3 deletion construct (aa 221-360) with 71 glutamines; assay: ataxin-3 aggregation in COS-1 cells, filtration method; type: cell-based; conditions: 40 h, membrane filter method
Method: For some compounds, a positive effect could be observed in another cell culture model of Huntington's chorea and a cell culture model of spinocerebellar ataxia (type 3). A test system based on the aggregation of an N-terminal ataxin-3 deletion construct (aa 221-360) with 71 glutamines in COS-1 cells was developed to isolate substances inhibiting the ataxin-3 aggregation. The cells were transiently transfected with the ataxin-3 expression construct and incubated in plates with 96 perforations with the added substance at 37° C. in an incubator. After 40 h the cells were harvested and lysated. The lysates were denatured in the presence of 2% SDS and analyzed using the filtration method.

amyloid-beta fibrils = amyloid-beta fibrils (Homo sapiens, UniProt P05067); assay: binding to amyloid-beta aggregates located on a cellulose acetate membrane; conditions: colored substances
Sequence of amyloid-beta fibrils (P05067 672-713 limits assumed): as the sequence (P05067 672-713 limits assumed) above
Source text: FIG. 16: Binding to amyloid-beta aggregates located on a cellulose acetate membrane

Molecule: c1cc2c3c(cccc3c1)NC(c1ccncc1)N2 [2-pyridine-4-yl-2,3-dihydro-1H-perimidine]
- Inhibition of the amyloid fibril formation of huntingtin (Exon-1) [1]: Inhibition of the amyloid fibril formation

Molecule: Nc1cccc(C2=Nc3cccc4cccc(c34)N2)c1 [3-(1H-perimidine-2-yl)-phenylamine]
- Inhibition of the aggregation of wild type Aβ1-42 (SDS-insoluble aggregates) (wild type Aβ1-42): Inhibition of the aggregation
- Inhibition of toxicity of extracellular wild type Aβ1-42 [2]: Inhibition of toxicity

Molecule: Cc1cc(=O)cc2oc3cc(N)c(-c4c(C)cc(O)cc4O)c(C)c3nc1-2 [7-amino-8-(2,4-dihydroxy-6-methyl-phenyl)-1,9-dimethyl-phenoxazine-3-one]
- Inhibition of the aggregation of huntingtin (Exon-1) (SDS-insoluble aggregates) [3]: aggregation inhibiting effect
- Inhibition of the amyloid fibril formation of huntingtin (Exon-1) [1]: aggregation inhibiting effect
- Inhibition of the aggregation of amyloid β-peptide Aβ1-42[E22Q] [4]: effectively inhibits the aggregation
- Inhibition of the aggregation of huntingtin in mammalian cells (huntingtin): aggregation inhibiting influence
- increase of total protein content (COS1 cells; COS1 cells cultivated in presence of compound): ~20%
- toxic effect, deduced from total amount of protein (COS1 cells; COS1 cells, at the concentrations used): without having a toxic effect
- caspase activity (caspases 3 and 7) (caspases-3/-7): caspase activity was reduced

Molecule: Oc1cc(O)c2c(c1)O[C@H](c1cc(O)c(O)c(O)c1)[C@H](O)C2 [EGC, (−)-Epigallocatechin]
- Inhibition of the aggregation of huntingtin (Exon-1) (SDS-insoluble aggregates) [3]: Inhibition of the aggregation
- Inhibition of the aggregation of alpha-synuclein (amyloid fibrils) (alpha-synuclein): Inhibition of the aggregation

Molecule: O=C(O[C@@H]1Cc2c(O)cc(O)cc2O[C@@H]1c1cc(O)c(O)c(O)c1)c1cc(O)c(O)c(O)c1 [EGCG, (−)-Epigallocatechin gallate]
- Inhibition of the aggregation of alpha-synuclein (amyloid fibrils) (alpha-synuclein): Inhibition of the aggregation
- neuroprotective effect (neuroblastoma cells): neuroprotective effect

Molecule: Oc1cc(O)c2c(c1)O[C@@H](c1cc(O)c(O)c(O)c1)[C@H](O)C2 [GC, (−)-Gallocatechin]
- Inhibition of the aggregation of huntingtin (Exon-1) (SDS-insoluble aggregates) [3]: Inhibition of the aggregation
- Inhibition of the aggregation of alpha-synuclein (amyloid fibrils) (alpha-synuclein): Inhibition of the aggregation

Molecule: CC(=O)N1CCN(c2ccc(OC(=O)Cc3cccs3)cc2)CC1 [Thiophene-2-yl-acetic acid 4-(4-acetyl-piperazine-1-yl)-phenyl ester]
- Inhibition of the aggregation of huntingtin in mammalian cells (huntingtin): Inhibition of the aggregation
- Inhibition of the aggregation of ataxin-3 in mammalian cells [5]: Inhibition of the aggregation

Molecule: alpha-amino-orcein
- Inhibition of the aggregation of wild type Aβ1-42 (SDS-insoluble aggregates) (wild type Aβ1-42): Inhibition of the aggregation
- Inhibition of toxicity of extracellular wild type Aβ1-42 [2]: Inhibition of the toxicity
- Inhibition of the aggregation of huntingtin in mammalian cells (huntingtin): Inhibition of the aggregation
- direct binding to amyloid-beta fibrils (amyloid-beta fibrils): bind directly to amyloid-beta fibrils
